# Measured values from patent US20060264418A1, “6-(2,2,2-Trifluoroethylamino-7-chloro-2,3,4,5-tetrahydro-1h-benzo[d] azephine as a 5-ht2c receptor agonist” (priority 2003, published 2006).
# What was measured:
# [1] = biological target: alpha 2 adrenergic receptor; experiment: Radioligand receptor binding assay, alpha 2 adrenergic
# male NIH Swiss mice = experiment: Nestlet shredding; format: in vivo, mouse; conditions: 30 min.
# Text: Mice naturally will construct nests of material available in their living environment. Since this behavior is obsessive in nature, it has been used to model OCD (Mia Li, Denise Morrow and Jeffrey M. Witkin, “Decreases in nestlet shredding of mice by serotonin uptake inhibitors: comparison with marble burying”, Psychopharmacology, submitted Jul. 14, 2003). House experimentally-naïve male, NIH Swiss mice (Harlan Sprague-Dawley, Indianapolis, Ind.) weighing between 28-35 g in groups of 12 for at least three days prior to testing in a vivarium with a 12 hr. light/dark cycle. Conduct experiments during the light cycle in an experimental room with normal overhead fluorescent lighting. Dose mice with vehicle or test compound and after a specified pretreatment interval (generally 30 min.), place the mice individually in a 17×28×12 cm high plastic tub with about 5 mm sawdust shavings on the floor along with a pre-weighed multi-ply gauze pad (51 mm square). After 30 min., weigh the remainder of the gauze pad not removed by the mouse. Determine the weight of the gauze used for nestlet construction by subtraction. Compare the results for test compound treated mice to the results for vehicle control treated mice with Dunnett's test.
# Clinically effective OCD treatment standard compounds suppress nestlet shredding at doses that are devoid of motor-impairing effects as measured by the rotorod test. […]
# 5-HT2C receptor = biological target: T1, 5-HT2C receptor (Homo sapiens, UniProt P28335); experiment: G alpha q-GTPγ[35S] binding agonist activity assay (ISPA), 5-HT2C; format: biochemical; set-up: expressed in transfected cells; host or cells: AV12 cells
# T1 sequence (P28335 33-458): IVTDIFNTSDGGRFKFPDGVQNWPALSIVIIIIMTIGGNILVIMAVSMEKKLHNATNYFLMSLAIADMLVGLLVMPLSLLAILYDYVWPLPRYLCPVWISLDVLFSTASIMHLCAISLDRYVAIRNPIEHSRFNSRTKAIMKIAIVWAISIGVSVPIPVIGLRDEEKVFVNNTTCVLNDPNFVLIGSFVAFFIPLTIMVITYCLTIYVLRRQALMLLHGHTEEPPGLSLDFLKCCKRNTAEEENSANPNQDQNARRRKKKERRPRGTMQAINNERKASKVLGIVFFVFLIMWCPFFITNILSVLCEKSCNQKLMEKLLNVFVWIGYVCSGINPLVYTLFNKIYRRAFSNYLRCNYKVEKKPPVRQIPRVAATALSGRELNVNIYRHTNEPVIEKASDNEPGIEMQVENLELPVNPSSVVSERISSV
# male Long-Evans rats = experiment: Acute feeding assay with a selective 5-HT2C receptor antagonist; format: in vivo, rat; conditions: antagonist 3 mg/Kg subcutaneous about 15 min. before oral test compound
# Text: Animals: Obtain male Long-Evans rats (Harlan Sprague-Dawley, Indianapolis, Ind.) that are approximately one hundred-days old and have been maintained on a calorie rich diet since weaning (TD 95217, 40% calories from fat; Teklad, Madison, Wis.). House the rats individually with a 12 hr.:12 hr. light:dark cycle (lights on from about 22:00 hr. to about 10:00 hr.) and maintain rats on the same diet (TD 95217) with free access to water, for about 1-2 weeks to acclimate the rats to the environment. Dose rats orally with vehicle (10% acacia with 0.15% saccharin in water) once daily for at least 1 day (typically 1-2 days) to acclimate the rats to the procedures. Randomize the rats into groups so each group has similar mean body weights.
# Acute Feeding Assay with a selective 5-HT2C receptor antagonist: The above calorimetric acute feeding assay is conducted with the following modifications. Open circuit calorimetry systems are not used and only the 24 hr. periodic food intake and body weight are measured. […]
smiles,measurement,setting,value
"FC(F)(F)CNc1c(Cl)ccc2c1CCNCC2.O=C(O)CCC(=O)O [Example 2, 7-Chloro-6-(2,2,2-trifluoroethylamino)-2,3,4,5-tetrahydro-1H-benzo[d]azepine Succinic Acid Salt]",IC50,[1],> 3 µM
same,"nestlet shredding (relative to motor effects, rotorod test)",male NIH Swiss mice,suppress nestlet shredding at doses that were devoid of motor-impairing effects
same,EC50,5-HT2C receptor,0.0118 ± 0.0028 µM
same,AUC 2C/2A Selectivity Ratio,"5-HT2C receptor; ratio of AUCs normalized to 5-HT, 5-HT2C receptor/5-HT2A receptor",2.2
same,AUC 2C/2B Selectivity Ratio,"5-HT2C receptor; ratio of AUCs normalized to 5-HT, 5-HT2C receptor/5-HT2B receptor",3.8
same,Emax,5-HT2C receptor; read-out: 5HT2C Emax,106 ± 2.8%
same,effect on 24 hr. food intake after pre-administration of the 5-HT2C receptor antagonist,male Long-Evans rats,blocked
